Source: ChEMBL document CHEMBL1201862, “PubChem BioAssay data set” (2004)
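All cell lines were grown in 96-well plates and treated with compound for 48 hours. Abbreviation: GI50, concentration required for 50% inhibition of growth.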 Activity calls are given as the source filed them. Cut-off read from the data, not from the text of the source: active = GI50 up to about 1.1 µM and inactive = higher.

Columns and labels:
Assay in all cases: inhibition of tumour cell growth, NCI panel, 48 h
MOLT-4 = system: MOLT-4
M19-MEL = system: M19-MEL
NCI-H226 = system: NCI-H226
SK-MEL-28 = system: SK-MEL-28
HOP-62 = system: HOP-62
KM12 = system: KM12
NCI-H23 = system: NCI-H23
SF-539 = system: SF-539
OVCAR-4 = system: OVCAR-4
OVCAR-5 = system: OVCAR-5
NCI-H522 = system: NCI-H522
CCRF-CEM = system: CCRF-CEM
OVCAR-8 = system: OVCAR-8
U-251 = system: U-251
Malme-3M = system: Malme-3M
SNB-75 = system: SNB-75
LOX IMVI = system: LOX IMVI
HOP-92 = system: HOP-92
SW-620 = system: SW-620
RXF 393 = system: RXF 393

Measured: GI50

CSc1sc(=S)sc1SC
inactive: MOLT-4 > 100 µM | M19-MEL > 100 µM | NCI-H226 > 100 µM | SK-MEL-28 > 100 µM | HOP-62 > 100 µM | KM12 > 100 µM | NCI-H23 > 100 µM | SF-539 > 100 µM | OVCAR-4 > 100 µM | OVCAR-5 > 100 µM | NCI-H522 > 100 µM | CCRF-CEM > 100 µM | OVCAR-8 > 100 µM | U-251 > 100 µM | Malme-3M > 100 µM | SNB-75 46.9 µM | LOX IMVI > 100 µM | HOP-92 > 100 µM | SW-620 > 100 µM | RXF 393 > 100 µM

C=C1C(=O)OC2CC(C)C3C4OC4C(O)C3(C)C(O)C12 (stereo not given)
inactive: MOLT-4 11.9 µM | M19-MEL 21.1 µM | NCI-H226 30 µM | SK-MEL-28 23.6 µM | HOP-62 68.9 µM | KM12 23.5 µM | NCI-H23 14.4 µM | SF-539 17.9 µM | OVCAR-4 26.5 µM | OVCAR-5 64 µM | NCI-H522 9.42 µM | CCRF-CEM 12 µM | OVCAR-8 28.4 µM | U-251 43.2 µM | Malme-3M 20.9 µM | SNB-75 41.7 µM | LOX IMVI 14 µM | HOP-92 23.6 µM | SW-620 16.5 µM | RXF 393 22.1 µM

CCC1OC(=O)C(C)C(OC2CC(C)(O)C(O)C(C)O2)C(C)C(O)C(C)(O)CC(C)C(=O)C(C)C(O)C1C (stereo not given)
inactive: MOLT-4 > 300 µM | M19-MEL > 300 µM | NCI-H226 > 300 µM | SK-MEL-28 > 300 µM | HOP-62 299 µM | KM12 225 µM | NCI-H23 > 300 µM | SF-539 > 300 µM | OVCAR-4 > 300 µM | OVCAR-5 > 292 µM | NCI-H522 > 300 µM | CCRF-CEM > 300 µM | OVCAR-8 > 300 µM | U-251 > 300 µM | Malme-3M > 300 µM | SNB-75 > 300 µM | LOX IMVI > 300 µM | HOP-92 30 µM | SW-620 > 300 µM | RXF 393 > 300 µM

CCC/C=C/C=C\C(=O)O[C@@H]1[C@@H](C)[C@]2(O)[C@@H]3C=C(C)C(=O)[C@H]3CC(COC(C)=O)=C[C@H]2[C@@H]2C(C)(C)[C@]12OC(C)=O
inactive: MOLT-4 10.2 µM | M19-MEL 32.2 µM | NCI-H226 46.6 µM | SK-MEL-28 39.4 µM | HOP-62 1.89 µM | KM12 47.9 µM | NCI-H23 33.7 µM | SF-539 41.4 µM | OVCAR-4 30.2 µM | OVCAR-5 66.5 µM | NCI-H522 27.7 µM | CCRF-CEM 3.56 µM | OVCAR-8 40.7 µM | U-251 17.6 µM | Malme-3M 33.2 µM | SNB-75 57.7 µM | LOX IMVI 16.8 µM | HOP-92 43.8 µM | SW-620 11.2 µM | RXF 393 47.5 µM
